Earlier results as cited in patent publication US20030225048A1, “Sulfatase inhibiting continuous progestogen contraceptive regimens” (priority 2002, published 2003).

Details: humans; norelgestromin is the major metabolite

## C#C[C@]1(OC(C)=O)CC[C@H]2[C@@H]3CCC4=CC(=NO)CC[C@@H]4[C@H]3CC[C@@]21CC (mixture of isomers) [norgestimate]
  norgestimate converted to norelgestromin in vivo: ≥ 80%
